# ChEMBL document CHEMBL4765282, “Design, synthesis and biological evaluation of 1H-pyrazolo [3,4-d]pyrimidine derivatives as PAK1 inhibitors that trigger apoptosis, ER stress and anti-migration effect in MDA-MB-231 cells” (Eur J Med Chem, 2020)
# Calls of active or inactive are those of the source. The calls are words filed in the database; no cut-off is given here.
# Legend:
# [1] = Effect on HERPUD1 gene expression in human MDA-MB-231 cells by Trizol reagent based RNA sequencing analysis relative to control; assay type: functional
# [2] = tested on: MDA-MB-231; experiment: Induction of apoptosis in human MDA-MB-231 cells assessed as increase in early apoptosis measured after 24 hrs by Annexin V-FITC/propidium iodide staining based flow cytometry; assay type: functional, cell-based
# [3] = molecular target: Serine/threonine-protein kinase PAK 2 (Homo sapiens, UniProt Q13177); experiment: Inhibition of PAK2 (unknown origin) […] measured after 40 mins by ADP-glo kinase assay
# [4] = tested on: MDA-MB-231; experiment: Inhibition of PI3K/AKT/mTOR signaling in human MDA-MB-231 cells assessed as reduction in mTOR phosphorylation at 10 to 40 uM after 24 hrs by Western blot analysis; assay type: cell-based; details: dose 10-40 µM
# [5] = tested on: MDA-MB-231; experiment: Induction of apoptosis in human MDA-MB-231 cells assessed as necrotic cells at 20 uM measured after 24 hrs by Annexin V-FITC/propidium iodide staining based flow cytometry (reference value: 0.16%); assay type: functional
# [6] = tested on: MDA-MB-231; experiment: Inhibition of PI3K/AKT/mTOR signaling in human MDA-MB-231 cells assessed as reduction in AKT phosphorylation at 10 to 40 uM after 24 hrs by Western blot analysis; assay type: cell-based; details: dose 10-40 µM
# [7] = Effect on CTGF gene expression in human MDA-MB-231 cells by Trizol reagent based RNA sequencing analysis relative to control; assay type: functional
# [8] = tested on: MDA-MB-231; experiment: Induction of apoptosis in human MDA-MB-231 cells assessed as early apoptotic cells at 10 uM measured after 24 hrs by Annexin V-FITC/propidium iodide staining based flow cytometry (reference value: 0.81%); assay type: functional
# [9] = tested on: MDA-MB-231; experiment: Induction of apoptosis in human MDA-MB-231 cells assessed as increase in PARP cleavage at 10 to 40 uM measured after 24 hrs by Western blot analysis; assay type: functional, cell-based; details: dose 10-40 µM
# [10] = Effect on ALPP gene expression in human MDA-MB-231 cells by Trizol reagent based RNA sequencing analysis relative to control; assay type: functional
# [11] = Effect on CHAC1 gene expression in human MDA-MB-231 cells by Trizol reagent based RNA sequencing analysis relative to control; assay type: functional
# [12] = Effect on KLHDC7B gene expression in human MDA-MB-231 cells by Trizol reagent based RNA sequencing analysis relative to control; assay type: functional
# [13] = molecular target: T1, Serine/threonine-protein kinase PAK 1 (Homo sapiens, UniProt Q13153); experiment: Inhibition of PAK1 phosphorylation at Ser199 residues in human MDA-MB-231 cells at 10 to 40 uM measured after 24 hrs by Western blot analysis; assay type: cell-based; details: dose 10-40 µM
# [14] = tested on: MDA-MB-231; experiment: Induction of apoptosis in human MDA-MB-231 cells assessed as late apoptotic cells at 40 uM measured after 24 hrs by Annexin V-FITC/propidium iodide staining based flow cytometry (reference value: 0.57%); assay type: functional
# [15] = Effect on DDIT4 gene expression in human MDA-MB-231 cells by Trizol reagent based RNA sequencing analysis relative to control; assay type: functional
# [16] = molecular target: T1, Serine/threonine-protein kinase PAK 1; experiment: Inhibition of PAK1 in human MDA-MB-231 cells assessed as reduction in c-Raf phosphorylation at Ser259 residues at 10 to 40 uM measured after 24 hrs by Western blot analysis; assay type: cell-based; details: dose 10-40 µM
# [17] = Effect on GDF15 gene expression in human MDA-MB-231 cells by Trizol reagent based RNA sequencing analysis relative to control; assay type: functional
# [18] = tested on: MDA-MB-231; experiment: Induction of apoptosis in human MDA-MB-231 cells assessed as viable cells at 40 uM measured after 24 hrs by Annexin V-FITC/propidium iodide staining based flow cytometry (reference value: 98.46%); assay type: functional; details: read-out: Activity
# [19] = tested on: MDA-MB-231; experiment: Down regulation of PAK1 expression in human MDA-MB-231 cells at 20 uM measured after 24 hrs by immunofluorescence analysis; assay type: functional, cell-based
# [20] = tested on: MDA-MB-231; experiment: Induction of apoptosis in human MDA-MB-231 cells assessed as upregulation of Bax expression at 10 to 40 uM measured after 24 hrs by Western blot analysis; assay type: functional, cell-based; details: dose 10-40 µM
# [21] = molecular target: Serine/threonine-protein kinase PAK 3 (Homo sapiens, UniProt O75914); experiment: Inhibition of PAK3 (unknown origin) […] measured after 40 mins by ADP-glo kinase assay
# [22] = tested on: MDA-MB-231; experiment: Upregulation of CHOP expression in human MDA-MB-231 cells at 10 to 40 uM measured after 24 hrs by Western blot analysis; assay type: functional, cell-based; details: dose 10-40 µM
# [23] = molecular target: T2, Mitogen-activated protein kinase 8/9 (Homo sapiens) (UniProt P45983+P45984); experiment: Inhibition of JNK1/2 in human MDA-MB-231 cells assessed as reduction in c-JUN phosphorylation at Ser63 residues at 10 to 40 uM after 24 hrs by Western blot analysis; assay type: cell-based; details: dose 10-40 µM
# [24] = Upregulation of ATF4 gene expression in human MDA-MB-231 cells by Trizol reagent based RNA sequencing analysis relative to control; assay type: functional
# [25] = tested on: MDA-MB-231; experiment: Upregulation of PERK expression in human MDA-MB-231 cells at 10 to 40 uM measured after 24 hrs by Western blot analysis; assay type: functional, cell-based; details: dose 10-40 µM
# [26] = Effect on GPT2 gene expression in human MDA-MB-231 cells by Trizol reagent based RNA sequencing analysis relative to control; assay type: functional
# [27] = Effect on MIA2 gene expression in human MDA-MB-231 cells by Trizol reagent based RNA sequencing analysis relative to control; assay type: functional
# [28] = Effect on CXCL2 gene expression in human MDA-MB-231 cells by Trizol reagent based RNA sequencing analysis relative to control; assay type: functional
# [29] = Effect on JUN gene expression in human MDA-MB-231 cells by Trizol reagent based RNA sequencing analysis relative to control; assay type: functional
# [30] = tested on: MDA-MB-231; experiment: Upregulation of XBP-1s expression in human MDA-MB-231 cells at 10 to 40 uM measured after 24 hrs by Western blot analysis; assay type: functional, cell-based; details: dose 10-40 µM
# [31] = molecular target: T2, Mitogen-activated protein kinase 8/9 (Homo sapiens); experiment: Inhibition of JNK1/2 in human MDA-MB-231 cells assessed as reduction in SAPK/JNK phosphorylation at […] residues at 10 to 40 uM after 24 hrs by Western blot analysis; assay type: cell-based; details: dose 10-40 µM
# [32] = molecular target: T1, Serine/threonine-protein kinase PAK 1; experiment: Inhibition of PAK1 in human MDA-MB-231 cells assessed as reduction in MEK1/2 phosphorylation at ser217/221 residues at 10 to 40 uM measured after 24 hrs by Western blot analysis; assay type: cell-based; details: dose 10-40 µM
# [33] = tested on: MDA-MB-231; experiment: Induction of apoptosis in human MDA-MB-231 cells assessed as early apoptotic cells at 40 uM measured after 24 hrs by Annexin V-FITC/propidium iodide staining based flow cytometry (reference value: 0.81%); assay type: functional
# [34] = tested on: MDA-MB-231; experiment: Induction of apoptosis in human MDA-MB-231 cells assessed as early apoptotic cells at 20 uM measured after 24 hrs by Annexin V-FITC/propidium iodide staining based flow cytometry (reference value: 0.81%); assay type: functional
# [35] = tested on: MDA-MB-231; experiment: Inhibition of AKT phosphorylation at Ser473 residue in human MDA-MB-231 cells at 20 uM measured after 24 hrs by immunofluorescence analysis; assay type: cell-based
# [36] = Effect on SHMT2 gene expression in human MDA-MB-231 cells by Trizol reagent based RNA sequencing analysis relative to control; assay type: functional
# T1 sequence (Q13153 whole entry): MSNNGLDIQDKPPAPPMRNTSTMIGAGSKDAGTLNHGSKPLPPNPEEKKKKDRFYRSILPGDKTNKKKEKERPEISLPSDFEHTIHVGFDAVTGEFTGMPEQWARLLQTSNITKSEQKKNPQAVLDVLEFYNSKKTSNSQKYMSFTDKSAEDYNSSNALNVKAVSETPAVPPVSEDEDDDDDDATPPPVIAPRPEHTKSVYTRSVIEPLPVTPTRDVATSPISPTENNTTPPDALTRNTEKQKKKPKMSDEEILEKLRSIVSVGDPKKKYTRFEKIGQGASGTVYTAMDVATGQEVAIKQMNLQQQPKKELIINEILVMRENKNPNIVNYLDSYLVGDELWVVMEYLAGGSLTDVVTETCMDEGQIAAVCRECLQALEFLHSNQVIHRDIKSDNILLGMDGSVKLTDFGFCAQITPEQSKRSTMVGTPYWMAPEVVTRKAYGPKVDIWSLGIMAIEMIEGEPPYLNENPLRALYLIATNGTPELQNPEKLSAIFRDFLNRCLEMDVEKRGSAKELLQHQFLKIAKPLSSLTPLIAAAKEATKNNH
# T2 sequence (P45983 whole entry, looked up): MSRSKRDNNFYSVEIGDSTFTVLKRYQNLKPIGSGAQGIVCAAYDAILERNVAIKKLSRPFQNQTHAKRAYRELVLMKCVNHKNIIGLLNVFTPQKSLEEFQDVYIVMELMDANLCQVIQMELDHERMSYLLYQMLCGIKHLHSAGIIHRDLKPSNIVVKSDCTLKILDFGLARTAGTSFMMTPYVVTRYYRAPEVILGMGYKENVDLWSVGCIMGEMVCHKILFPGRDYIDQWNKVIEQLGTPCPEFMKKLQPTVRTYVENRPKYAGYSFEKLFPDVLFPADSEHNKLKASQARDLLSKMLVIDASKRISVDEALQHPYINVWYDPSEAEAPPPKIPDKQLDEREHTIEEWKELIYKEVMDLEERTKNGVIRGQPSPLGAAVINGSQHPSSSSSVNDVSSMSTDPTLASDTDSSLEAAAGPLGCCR
# T2 sequence (P45984 whole entry, looked up): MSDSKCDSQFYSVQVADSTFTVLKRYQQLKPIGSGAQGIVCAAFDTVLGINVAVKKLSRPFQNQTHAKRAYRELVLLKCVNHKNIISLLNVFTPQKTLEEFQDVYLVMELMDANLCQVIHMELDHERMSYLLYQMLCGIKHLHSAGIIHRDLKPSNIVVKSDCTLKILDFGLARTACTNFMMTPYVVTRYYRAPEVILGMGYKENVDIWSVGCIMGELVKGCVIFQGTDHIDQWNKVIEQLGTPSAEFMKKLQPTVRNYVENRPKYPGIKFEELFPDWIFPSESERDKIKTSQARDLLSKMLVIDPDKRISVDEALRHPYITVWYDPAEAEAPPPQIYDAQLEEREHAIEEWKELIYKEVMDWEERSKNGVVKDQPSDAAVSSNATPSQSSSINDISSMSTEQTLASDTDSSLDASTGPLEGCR
# Sequence of Serine/threonine-protein kinase PAK 2 (Q13177 whole entry): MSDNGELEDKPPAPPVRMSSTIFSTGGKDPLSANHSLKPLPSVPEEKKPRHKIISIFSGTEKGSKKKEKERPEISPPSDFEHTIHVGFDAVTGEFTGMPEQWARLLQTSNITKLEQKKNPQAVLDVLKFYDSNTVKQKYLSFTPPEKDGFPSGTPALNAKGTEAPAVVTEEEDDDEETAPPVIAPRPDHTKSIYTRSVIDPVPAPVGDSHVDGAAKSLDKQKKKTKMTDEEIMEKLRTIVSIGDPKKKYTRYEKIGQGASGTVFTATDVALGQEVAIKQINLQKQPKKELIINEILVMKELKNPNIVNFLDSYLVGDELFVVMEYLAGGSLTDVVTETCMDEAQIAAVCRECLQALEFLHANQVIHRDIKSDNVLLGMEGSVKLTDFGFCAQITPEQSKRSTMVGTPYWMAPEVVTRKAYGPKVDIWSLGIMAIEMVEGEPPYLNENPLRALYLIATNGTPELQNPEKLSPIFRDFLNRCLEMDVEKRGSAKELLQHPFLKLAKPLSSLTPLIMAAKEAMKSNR
# Sequence of Serine/threonine-protein kinase PAK 3 (O75914 whole entry): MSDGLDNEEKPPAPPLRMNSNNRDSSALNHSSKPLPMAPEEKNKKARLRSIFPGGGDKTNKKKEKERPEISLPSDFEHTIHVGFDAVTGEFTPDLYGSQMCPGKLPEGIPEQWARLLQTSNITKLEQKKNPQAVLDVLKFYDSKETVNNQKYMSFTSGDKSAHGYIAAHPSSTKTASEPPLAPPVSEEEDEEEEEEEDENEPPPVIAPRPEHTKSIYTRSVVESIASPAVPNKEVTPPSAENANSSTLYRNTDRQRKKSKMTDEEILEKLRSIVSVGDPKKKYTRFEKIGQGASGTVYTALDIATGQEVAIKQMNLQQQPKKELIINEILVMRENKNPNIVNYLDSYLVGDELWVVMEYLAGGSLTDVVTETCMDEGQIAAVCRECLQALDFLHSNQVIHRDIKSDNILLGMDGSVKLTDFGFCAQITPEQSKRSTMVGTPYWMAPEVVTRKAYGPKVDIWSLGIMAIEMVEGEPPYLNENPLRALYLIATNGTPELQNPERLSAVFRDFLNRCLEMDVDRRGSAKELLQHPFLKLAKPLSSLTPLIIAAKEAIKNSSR
compound,measurement,setting,value
O=C(Nc1cc(C(F)(F)F)cc(C(F)(F)F)c1)NC1CCN(c2ncnc3[nH]ncc23)CC1,fold change (FC),[1],>2
same,Activity,[2],Dose-dependent effect
same,IC50,[3],1040 nM
same,inhibition,[4],Active
same,Activity,[5],0.59%
same,inhibition,[6],Active
same,fold change (FC),[7],>2
same,Activity,[8],7.16%
same,Activity,[9],Active
same,fold change (FC),[10],>2
same,fold change (FC),[11],>2
same,fold change (FC),[12],>2
same,inhibition,[13],Active
same,Activity,[14],12.06%
same,fold change (FC),[15],>2
same,inhibition,[16],Active
same,fold change (FC),[17],>2
same,viability at 40 µM,[18],72.2%
same,Activity,[19],Active
same,Activity,[20],Active
same,IC50,[21],1370 nM
same,Activity,[22],Active
same,inhibition,[23],Active
same,fold change (FC),[24],>2
same,Activity,[25],Active
same,fold change (FC),[26],>2
same,fold change (FC),[27],>2
same,fold change (FC),[28],>2
same,fold change (FC),[29],>2
same,Activity,[30],Active
same,inhibition,[31],Active
same,inhibition,[32],Active
same,Activity,[33],14.79%
same,Activity,[34],15.2%
same,inhibition,[35],Active
same,fold change (FC),[36],>2
